Usually half-life stands for the time in which the quantity being followed falls by half. Lower therefore signals fast loss. Usually Tmax stands for the time from dosing to the highest level. In general, Cmax refers to the peak of the concentration-time curve. A word on the EC50: it is the concentration that produces a half-maximal response.

Where “and” joins values, the source holds several entries; their conditions need not be identical. Equal values may be shown once. Read-outs that look alike come from different tables or passages of the source. *1 amine or outer side, *2 acyl side, *3 side chain or, on linkers, in order; H or OH if unused. Where a SMILES comes first, the peptide text is derived from it. Bridges are numbered along the chain shown (N, C = ends). Roman numbers before positions name the chains, in order. Side-chain parts run from the residue outwards. [ ]: non-standard residue; d: D form. The star is where a group is joined. C20 diacid = O=C(O)CCCCCCCCCCCCCCCCCCC(=O)*; C18 diacid = O=C(O)CCCCCCCCCCCCCCCCC(=O)*; γGlu = O=C(O)[C@H](CCC(=O)[*:2])N[*:1]; εLys = N[C@@H](CCCCN[*:1])C(=O)[*:2]; pGlu = O=C1CC[C@@H](C(=O)O)N1; αMeL = CC(C)C[C@](C)(N)C(=O)O; AEEA = NCCOCCOCC(=O)O; Aib = CC(C)(N)C(=O)O

A short description of data set [1]: Pharmacokinetics in Sprague Dawley rats, single subcutaneous or intravenous dose (incl. 10, 30, 100 nmol/kg dose response). It counts as in vivo.
The next data set deals with T1, human CRHR2 (Homo sapiens, UniProt Q13324).
T1 construct: expressed in transfected cells
T1 sequence (Q13324 1-438 isoform Q13324-2): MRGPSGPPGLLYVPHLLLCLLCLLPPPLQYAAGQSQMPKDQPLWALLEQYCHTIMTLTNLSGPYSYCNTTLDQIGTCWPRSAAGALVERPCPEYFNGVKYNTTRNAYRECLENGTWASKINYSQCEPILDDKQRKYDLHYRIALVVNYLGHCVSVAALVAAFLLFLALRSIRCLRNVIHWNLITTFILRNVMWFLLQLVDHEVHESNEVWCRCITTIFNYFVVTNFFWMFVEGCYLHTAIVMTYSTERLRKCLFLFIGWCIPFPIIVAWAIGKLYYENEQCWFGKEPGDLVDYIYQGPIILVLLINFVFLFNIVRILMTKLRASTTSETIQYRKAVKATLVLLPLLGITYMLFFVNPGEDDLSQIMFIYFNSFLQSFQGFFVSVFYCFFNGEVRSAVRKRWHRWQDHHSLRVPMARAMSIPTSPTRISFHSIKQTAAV
In words: Human CRHR2 cAMP assay (HTRF) in HEK293 cells stably expressing human CRHR2. It counts as cell-based. Conditions: HEK293 cells overexpressing human CRHR2; relative EC50, maximum 10 nM human UCN2; mean ± SE; read-out: hCRHR2 cAMP EC50 (pM, ± SE). A digest of the protocol: (§1)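 Frozen stable HEK293-CRHR1 or -CRHR2 cells are thawed into IBMX-containing (0.25 mM) casein/HEPES pH 7.4 MEM buffer. Peptide dilution series (1:3) are added, then CRHR1 cells sit 1 h at 37° C and CRHR2 cells 30 min at room temperature. Intracellular cAMP is then measured by HTRF.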
(In general: Cyclic AMP is a second messenger, typically raised through Gs and lowered through Gi signalling.)

Another data set has as its target T2, human CRHR1 (Homo sapiens, UniProt P34998).
T2 construct: expressed in transfected cells
T2 sequence (P34998 24-415): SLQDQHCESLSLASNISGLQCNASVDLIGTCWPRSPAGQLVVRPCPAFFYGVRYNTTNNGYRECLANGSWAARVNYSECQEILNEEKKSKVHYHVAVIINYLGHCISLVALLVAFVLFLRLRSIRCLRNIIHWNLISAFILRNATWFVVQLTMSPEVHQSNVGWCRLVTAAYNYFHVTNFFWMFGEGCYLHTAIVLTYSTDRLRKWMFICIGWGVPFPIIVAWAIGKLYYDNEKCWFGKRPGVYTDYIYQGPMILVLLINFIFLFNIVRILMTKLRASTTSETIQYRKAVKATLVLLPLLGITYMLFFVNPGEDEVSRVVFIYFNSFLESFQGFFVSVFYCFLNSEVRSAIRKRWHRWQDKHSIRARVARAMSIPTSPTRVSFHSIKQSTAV
Kind of data set: Human CRHR1 cAMP assay (HTRF) in HEK293 cells stably expressing human CRHR1. It counts as cell-based. Particulars: HEK293 cells overexpressing human CRHR1; relative EC50, maximum 66 nM human UCN1; mean ± SE; read-out: hCRHR1 cAMP EC50 (pM, ± SE). A digest of the protocol: as §1

The mark [2] stands for this setting: male, Sprague Dawley, rat, plasma, iv, 196 nmol/kg, single intravenous dose 196 nmol/kg, individual animal.
The mark [3] stands for this setting: male, Sprague Dawley, rat, plasma, iv, 196 nmol/kg, single intravenous dose 196 nmol/kg, mean.
The mark [4] stands for this setting: single intravenous dose 196 nmol/kg, male Sprague Dawley rats, individual animal.
Where [5] appears, read: single subcutaneous dose 196 nmol/kg, male Sprague Dawley rats, individual animal.

`CC[C@H](C)[C@H](NC(C)=O)C(=O)N[C@H](C(=O)N[C@H](C(=O)N[C@@H](CO)C(=O)N[C@@](C)(CC(C)C)C(=O)N[C@@H](CC(=O)O)C(=O)N[C@@H](C(=O)N1CCC[C@H]1C(=O)N[C@H](C(=O)NC(C)(C)C(=O)N[C@@](C)(CC(C)C)C(=O)N[C@@H](CC(C)C)C(=O)N[C@@H](CCC(N)=O)C(=O)N[C@H](C(=O)N[C@@H](CCCCN)C(=O)N[C@@H](CC(C)C)C(=O)N[C@@H](CCC(=O)O)C(=O)N[C@@H](CCC(N)=O)C(=O)N[C@@H](CCC(=O)O)C(=O)N[C@@H](CCCNC(=N)N)C(=O)N[C@@H](C)C(=O)N[C@@H](CCC(=O)O)C(=O)N[C@@H](CCCCN)C(=O)N[C@@H](C)C(=O)N[C@@H](CCCNC(=N)N)C(=O)N[C@@H](CCC(N)=O)C(=O)N[C@@H](CCC(N)=O)C(=O)N[C@@H](C)C(=O)N[C@@H](CCCCNC(=O)COCCOCCNC(=O)COCCOCCNC(=O)CC[C@H](NC(=O)CCCCCCCCCCCCCCCCCCC(=O)O)C(=O)O)C(=O)N[C@@H](CCC(=O)O)C(=O)N[C@@H](CC(N)=O)C(=O)N[C@H](C(=O)N[C@@H](CCC(=O)O)C(=O)N[C@H](C(=O)N[C@@H](CC(C)C)C(=O)N[C@@H](C)C(=O)N[C@@H](CCC(N)=O)C(=O)N[C@H](C(N)=O)C(C)C)[C@@H](C)CC)[C@@H](C)O)[C@@H](C)CC)[C@@H](C)CC)C(C)C)[C@@H](C)O)C(C)C` [SEQ ID NO: 42, Ac-IVTS αMeL D (D-Val) PI Aib αMeL LQIKLEQERAEKARQQAK((2-[2-(2-Amino-ethoxy)-ethoxy]-acetyl)2-γE-CO-(CH2)18-CO2H)ENTEILAQV-NH2] (Ac-IVTS[αMeL]D[dV]PI[Aib][αMeL]LQIKLEQERAEKARQQAK([AEEA-AEEA-γGlu-C20 diacid])ENTEILAQV-NH2): the clearance in data set [1] (setting [2]) was 2.4 mL/h/kg; in data set [1] (setting [3]) it was 2.43 mL/h/kg. Besides, the half-life is 36.1 h in data set [1] (setting [2]); 39.3 h in data set [1] (setting [3]); 33.2 h in data set [1] (male, Sprague Dawley, rat, plasma, sc, 196 nmol/kg, single subcutaneous dose 196 nmol/kg, individual animal); 42.2 h in data set [1] (male, Sprague Dawley, rat, plasma, sc, 196 nmol/kg, single subcutaneous dose 196 nmol/kg, mean). The CL/F in data set [1] (male, Sprague Dawley, rat, plasma, sc, 196 nmol/kg, single subcutaneous dose 196 nmol/kg, individual animal, read-out: CL/F (converted)) was 5.41 mL/h/kg; in data set [1] (male, Sprague Dawley, rat, plasma, sc, 196 nmol/kg, single subcutaneous dose 196 nmol/kg, mean, read-out: CL/F (converted)), 4.85 mL/h/kg; in data set [1] (setting [5]), 4.80 mL/h/kg and 4.35 mL/h/kg. Further, the Tmax is 48 h in data set [1] (male, Sprague Dawley, rat, plasma, sc, 196 nmol/kg, single subcutaneous dose 196 nmol/kg, individual animal, read-out: Tmax); 40 h in data set [1] (male, Sprague Dawley, rat, plasma, sc, 196 nmol/kg, single subcutaneous dose 196 nmol/kg, mean, read-out: Tmax); 24 h in data set [1] (setting [5]). Besides, the AUC0-inf was 44.3 µM·h in data set [1] (rat, plasma, sc, single subcutaneous dose 196 nmol/kg, male Sprague Dawley rats, mean, read-out: AUC0-inf); 80.6 µM·h in data set [1] (rat, plasma, single intravenous dose 196 nmol/kg, male Sprague Dawley rats, mean, read-out: AUC0-inf); 81.5 µM·h and 77.9 µM·h and 82.5 µM·h in data set [1] (setting [4]); 38.1 µM·h and 43.2 µM·h and 51.5 µM·h in data set [1] (setting [5]). Besides, the Cmax was 473 nM in data set [1] (rat, plasma, sc, single subcutaneous dose 196 nmol/kg, male Sprague Dawley rats, mean, read-out: Cmax); 399 nM and 559 nM and 460 nM in data set [1] (setting [5]). The C0 in data set [1] (rat, plasma, single intravenous dose 196 nmol/kg, male Sprague Dawley rats, mean, read-out: C0) was 2420 nM; in data set [1] (setting [4]), 2760 nM and 2250 nM and 2260 nM. For the same compound, the CL in data set [1] (setting [4]) is 2.51 mL/h/kg and 2.37 mL/h/kg. Besides, the T1/2 in data set [1] (setting [4]) was 35.8 h and 46.0 h; in data set [1] (setting [5]), 39.1 h and 54.2 h. Besides, the EC50 stood at 6.6 ± 0.8 pM on human CRHR2 and 2.3e+06 pM at human CRHR1.

For “Ac-PPPIVTS[αMeL]D[dV]PT[Aib][αMeL]LQKLLEQERAEKARQQAK([γGlu-AEEA-εLys-C20 diacid])EAAEILAQV-NH2 [SEQ ID NO: 47, Ac-PPPIVTS αMeL D (D-Val) PT Aib αMeL LQKLLEQERAEKARQQAK(γE-(2-[2-(2-Amino-ethoxy)-ethoxy]-acetyl)-ϵK-CO-(CH2)18-CO2H)EAAEILAQV-NH2]”, the EC50 at human CRHR2 was 17.5 ± 2.2 pM; on human CRHR1, 2.3e+06 pM.

With “Ac-PPPIVTS[αMeL]D[dV]PT[Aib][αMeL]LQK[Aib]LEQERAEKARQQAK([γGlu-AEEA-εLys-C20 diacid])ENTEILAQV-NH2 [SEQ ID NO: 46, Ac-PPPIVTS αMeL D (D-Val) PT Aib αMeL LQK Aib LEQERAEKARQQAK(γE-(2-[2-(2-Amino-ethoxy)-ethoxy]-acetyl)-ϵK-CO-(CH2)18-CO2H)ENTEILAQV-NH2]”, the results for the EC50 at human CRHR2 and on human CRHR1 were 13 ± 1.1 pM and greater than 1e+07 pM, respectively.

Consider “H-GSPSIVTS[αMeL]DVPT[Aib][αMeL]LQKILEQERAEKARQQATEAAEILAQV-NH2 [SEQ ID NO: 27]”, for which the EC50 at human CRHR2 was 23.6 ± 2.9 pM; on human CRHR1 it was greater than 1e+07 pM.

On to “I: Ac-GSPSIVTS[αMeL]DVPT[Aib][αMeL]LQKILEQERAEKARQQAKEAAEILAQV-NH2 / II: {C20 diacid-γGlu}-EKEKEK[AEEA] (amide I:33-II:C) [SEQ ID NO: 9, Ac-GSPSIVTS αMeL DVPT Aib αMeL LQKILEQERAEKARQQAK((2-[2-(2-Amino-ethoxy)-ethoxy]-acetyl)-KEKEKE-γE-CO-(CH2)18-CO2H)EAAEILAQV-NH2]”, for which the EC50 at human CRHR2 is 15.5 ± 3.3 pM; at human CRHR1, greater than 1e+07 pM.

Turning to “I: Ac-GSPSIVTS[αMeL]DVPT[Aib][αMeL]LQKILEQERAEKARQQAKEAAEILAQV-NH2 / II: {C20 diacid}-EPEPEP[γGlu] (amide I:33-II:C) [SEQ ID NO: 16, Ac-GSPSIVTS αMeL DVPT Aib αMeL LQKILEQERAEKARQQAK(γE-PEPEPE-CO-(CH2)18-CO2H)EAAEILAQV-NH2]”, the EC50 on human CRHR2 is 12.5 ± 1.1 pM; at human CRHR1, greater than 1e+07 pM.

“I: Ac-GSPSIVTS[αMeL]DVPT[Aib][αMeL]LQKILEQERAEKARQQAKEAAEILAQV-NH2 / II: {C20 diacid}-PPPPPP[γGlu] (amide I:33-II:C) [SEQ ID NO: 15, Ac-GSPSIVTS αMeL DVPT Aib αMeL LQKILEQERAEKARQQAK(γE-PPPPPP-CO-(CH2)18-CO2H)EAAEILAQV-NH2]”: the EC50 was 11.3 ± 0.4 pM on human CRHR2 and greater than 1e+07 pM on human CRHR1.

In the case of “[pGlu]GSPSGIVTS[αMeL]DVPT[Aib][αMeL]LQKILEQERAEKARQQAK([γGlu-AEEA-εLys-C18 diacid])EAAEILAQV-NH2 [SEQ ID NO: 24, Pyr-GSPSGIVTS αMeL DVPT Aib αMeL LQKILEQERAEKARQQAK(γE-(2-[2-(2-Amino-ethoxy)-ethoxy]-acetyl)-ϵK-CO-(CH2)16-CO2H)EAAEILAQV-NH2]”, the EC50 is 21.7 ± 3.6 pM at human CRHR2 and greater than 1e+07 pM at human CRHR1.

For “[pGlu]GSPSGIVTS[αMeL]DVPT[Aib][αMeL]LQKILEQERAEKARQQAKEAAEILAQV-NH2 [SEQ ID NO: 23]”, the EC50 on human CRHR2 is 28.9 ± 1.2 pM; at human CRHR1 it was greater than 1e+07 pM.

“{C18 diacid-εLys-AEEA-γGlu}-GSPSIVTS[αMeL]DVPT[Aib][αMeL]LQKILEQERAEKARQQATEAAEILAQV-NH2 [SEQ ID NO: 28]”: the EC50 at human CRHR2 was 12.8 ± 2 pM; on human CRHR1 it was greater than 1e+07 pM.

As to “{C20 diacid}-K[AEEA][γGlu]GSPSIVTS[αMeL]DVPT[Aib][αMeL]LQKILEQERAEKARQQATEAAEILAQV-NH2 [SEQ ID NO: 26]”, the EC50 is 6.9 ± 0.7 pM on human CRHR2 and greater than 1e+07 pM at human CRHR1.

Source of the values: patent publication US20250163119A1, “COMPOUNDS FOR THE TREATMENT OF DIABETES OR OBESITY” (Eli Lilly and Company, priority 2023, published 2025).
